Test results from ChEMBL document CHEMBL1201862, “PubChem BioAssay data set” (2004).
Blank lines part the entries; values can stand above or below the compound they belong to. Calls of active or inactive are those of the source.

Experiments:
Trypsin = Trypsin (Sus scrofa, UniProt P00761); assay: trypsin protease activity blockade – biochemical, quenched peptide fluorescence, cherry-pick, selectivity assay for Rce1 protease inhibitor project, dose response (AID 488789)
Coagulation factor XII = biological target: T1, Coagulation factor XII (Homo sapiens, UniProt P00748); type: functional;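 also: activated factor XIIa alpha cleaving a fluorogenic AMC peptide substrate; inhibitor potency from loss of enzyme activity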
T1 sequence (P00748 whole entry): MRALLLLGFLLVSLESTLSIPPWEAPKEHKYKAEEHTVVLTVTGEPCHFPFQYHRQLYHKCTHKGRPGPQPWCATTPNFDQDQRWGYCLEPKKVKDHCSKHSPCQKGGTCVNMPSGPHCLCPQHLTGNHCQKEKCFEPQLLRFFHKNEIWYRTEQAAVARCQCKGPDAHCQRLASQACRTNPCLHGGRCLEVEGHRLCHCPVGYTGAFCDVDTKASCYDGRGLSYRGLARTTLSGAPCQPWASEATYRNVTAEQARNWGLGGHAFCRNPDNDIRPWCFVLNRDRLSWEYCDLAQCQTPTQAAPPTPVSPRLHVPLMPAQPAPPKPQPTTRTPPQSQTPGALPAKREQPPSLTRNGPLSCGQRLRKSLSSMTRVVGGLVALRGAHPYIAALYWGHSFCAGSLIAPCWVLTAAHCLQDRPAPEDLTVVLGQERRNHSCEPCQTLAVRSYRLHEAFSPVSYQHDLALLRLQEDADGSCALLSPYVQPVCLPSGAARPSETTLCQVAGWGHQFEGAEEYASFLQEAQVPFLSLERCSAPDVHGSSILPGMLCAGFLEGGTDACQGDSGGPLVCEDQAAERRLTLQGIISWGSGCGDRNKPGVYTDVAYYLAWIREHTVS

HEK293 [1] = assay: cells; type: functional, cell-based; settings: Homo sapiens
HEK293 [2] = assay: inhibition of NOD1-driven NF-kB reporter – cell-based, luminescence, uHTS, primary screen (AID 1578); type: functional; settings: Homo sapiens
[3] = biological target: Nucleotide-binding oligomerization domain-containing protein 2 (Homo sapiens, UniProt Q9HC29); assay: inhibition of NOD2-driven NF-kB reporter – cell-based, luminescence, uHTS, HEK293 (AID 1566); type: functional
HEK293 [4] = assay: cells; type: functional, cell-based; settings: Homo sapiens; remark: listed apart in the source
HEK293 [5] = assay: cells; type: functional, cell-based; settings: Homo sapiens; remark: listed apart in the source
HEK293 [6] = assay: NOD2 signaling inhibitors in MDP-stimulated cells, cell-based, uHTS, luminescence (AID 2001); type: functional; settings: Homo sapiens
BJ [7] = assay: BJ-TERT-LT-ST fibroblast viability loss – cell-based, RAS-independent, luminescence, dose response (AID 1935); type: functional; settings: Homo sapiens;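 also: BJ fibroblasts immortalized with TERT plus LT and ST oncogenes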
BJ [8] = assay: BJ-TERT fibroblast viability loss – cell-based, RAS-independent, luminescence, dose response (AID 1933); type: functional; settings: Homo sapiens
INS1 = assay: INS-1E survival protection against cytokine death – cell-based, luminescence, retest, dose response (AID 449756); type: functional; settings: Rattus norvegicus;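 also: cell death triggered by IL-1 beta plus TNF-alpha plus IFN-gamma mixture; protective hits raise ATP signal compared with cytokine alone wells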
BJ [9] = assay: cells; type: functional, cell-based; settings: Homo sapiens
[10] = DRD fibroblast viability loss – cell-based, non-viral oncogenic, luminescence, dose response (AID 1934); type: functional; settings: Homo sapiens
[11] = biological target: DNA dC->dU-editing enzyme APOBEC-3G (Homo sapiens, UniProt Q9HC16); assay: Dose Response confirmation of small molecule APOBEC3G DNA Deaminase Inhibitors via a fluorescence-based single-stranded DNA deaminase assay. [Related pubchem assays (depositor defined):AID493012, AID493028]; type: functional
Aminopeptidase N = biological target: T2, Aminopeptidase N (Plasmodium falciparum FcB1/Columbia, UniProt O96935); assay: malaria alanyl aminopeptidase activity blockers – biochemical, fluorogenic H-Leu-NHMec substrate, 1536-well (AID 1445); parameters: species or system Plasmodium falciparum 3D7, 3D7
T2 sequence (O96935 whole entry): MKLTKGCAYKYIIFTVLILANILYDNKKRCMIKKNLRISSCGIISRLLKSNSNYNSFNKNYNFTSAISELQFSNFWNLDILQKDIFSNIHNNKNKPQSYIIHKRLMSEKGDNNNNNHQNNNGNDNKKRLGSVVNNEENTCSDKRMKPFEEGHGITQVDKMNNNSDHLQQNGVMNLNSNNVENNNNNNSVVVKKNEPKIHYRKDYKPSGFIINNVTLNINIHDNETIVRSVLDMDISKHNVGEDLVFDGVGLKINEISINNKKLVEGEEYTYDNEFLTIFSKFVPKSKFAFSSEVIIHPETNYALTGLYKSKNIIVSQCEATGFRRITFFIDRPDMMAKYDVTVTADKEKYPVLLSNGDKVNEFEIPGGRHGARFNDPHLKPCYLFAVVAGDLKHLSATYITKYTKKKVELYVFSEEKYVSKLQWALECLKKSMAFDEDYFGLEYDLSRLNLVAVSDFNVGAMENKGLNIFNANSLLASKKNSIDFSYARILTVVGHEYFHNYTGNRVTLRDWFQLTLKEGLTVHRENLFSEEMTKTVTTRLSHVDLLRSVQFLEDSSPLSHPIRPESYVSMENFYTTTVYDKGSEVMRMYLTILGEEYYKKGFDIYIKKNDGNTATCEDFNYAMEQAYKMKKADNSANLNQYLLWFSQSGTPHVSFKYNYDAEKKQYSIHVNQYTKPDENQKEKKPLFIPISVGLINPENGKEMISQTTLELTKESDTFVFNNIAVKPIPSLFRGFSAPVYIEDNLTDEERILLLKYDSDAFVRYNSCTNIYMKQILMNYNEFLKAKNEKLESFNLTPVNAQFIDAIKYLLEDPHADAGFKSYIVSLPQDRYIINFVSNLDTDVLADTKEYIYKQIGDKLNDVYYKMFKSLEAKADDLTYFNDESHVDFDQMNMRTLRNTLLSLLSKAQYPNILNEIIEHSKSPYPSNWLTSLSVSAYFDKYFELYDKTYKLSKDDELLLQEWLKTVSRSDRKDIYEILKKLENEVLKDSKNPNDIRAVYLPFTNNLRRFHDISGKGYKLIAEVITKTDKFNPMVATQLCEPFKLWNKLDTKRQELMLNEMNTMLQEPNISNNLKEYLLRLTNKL

[12] = HEK-293T viability loss after treatment – luminescence, T-cell screen hits, cytotoxicity control for TCR NF-kB inhibitor project, dose response (AID 489026); type: functional, cell-based;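 also: cells exposed to compound about 14 hours before the viability readout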
Tumor necrosis factor = Tumor necrosis factor (Homo sapiens, UniProt P01375); assay: analog potency on TNFa NF-kB signaling – cell-based, revised, SAR follow-up (AID 2337); type: functional
HEK293 [13] = assay: cells; settings: Homo sapiens
[14] = biological target: T3, Nucleotide-binding oligomerization domain-containing protein 1 (Homo sapiens, UniProt Q9Y239); assay: blockers of NOD1 pathway activity – revised, SAR follow-up (AID 2333); type: functional
T3 sequence (Q9Y239 whole entry): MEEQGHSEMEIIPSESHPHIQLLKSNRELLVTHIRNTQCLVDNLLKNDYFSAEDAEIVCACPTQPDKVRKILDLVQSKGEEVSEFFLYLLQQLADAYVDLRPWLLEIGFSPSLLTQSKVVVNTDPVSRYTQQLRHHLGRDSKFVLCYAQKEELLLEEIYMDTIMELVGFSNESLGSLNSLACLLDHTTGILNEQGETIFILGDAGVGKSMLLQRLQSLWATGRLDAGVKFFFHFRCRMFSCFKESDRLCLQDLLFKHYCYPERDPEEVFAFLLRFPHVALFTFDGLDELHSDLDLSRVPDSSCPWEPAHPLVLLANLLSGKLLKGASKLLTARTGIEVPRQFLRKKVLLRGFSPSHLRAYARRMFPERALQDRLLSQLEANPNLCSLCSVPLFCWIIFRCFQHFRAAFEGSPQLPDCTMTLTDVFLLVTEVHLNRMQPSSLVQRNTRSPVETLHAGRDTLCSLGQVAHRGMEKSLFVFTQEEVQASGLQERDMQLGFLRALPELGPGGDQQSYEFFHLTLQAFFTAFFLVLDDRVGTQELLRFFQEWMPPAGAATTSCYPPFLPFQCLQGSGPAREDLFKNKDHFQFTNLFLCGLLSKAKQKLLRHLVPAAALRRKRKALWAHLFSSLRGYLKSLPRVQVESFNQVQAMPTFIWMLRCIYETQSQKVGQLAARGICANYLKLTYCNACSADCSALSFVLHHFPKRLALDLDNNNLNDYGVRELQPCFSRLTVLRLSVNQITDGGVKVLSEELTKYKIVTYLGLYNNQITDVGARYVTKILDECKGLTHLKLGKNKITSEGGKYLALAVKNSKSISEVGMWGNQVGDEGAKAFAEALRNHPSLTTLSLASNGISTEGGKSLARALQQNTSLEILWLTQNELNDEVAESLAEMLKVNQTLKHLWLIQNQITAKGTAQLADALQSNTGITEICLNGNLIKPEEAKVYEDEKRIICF

[15] = Trypanosoma cruzi growth suppression in host cells – NIH3T3 host cells, beta-gal luminescence, confirmation (AID 2044); type: functional, cell-based;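 also: intracellular parasites grown in NIH/3T3 mouse fibroblasts as host cells; luminescent beta-galactosidase reporter signal from transgenic T. cruzi replicating inside host cells; inhibitors lower the luminescence signal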
[16] = biological target: T4, Rac GTPase-activating protein 1 (Homo sapiens, UniProt Q9H0H5); assay: blockers of MgcRacGAP-driven Rac1 GTP hydrolysis – biochemical, ADP Hunter fluorescence, primary and confirmatory, confirmation (AID 624330); type: functional
T4 sequence (Q9H0H5 whole entry): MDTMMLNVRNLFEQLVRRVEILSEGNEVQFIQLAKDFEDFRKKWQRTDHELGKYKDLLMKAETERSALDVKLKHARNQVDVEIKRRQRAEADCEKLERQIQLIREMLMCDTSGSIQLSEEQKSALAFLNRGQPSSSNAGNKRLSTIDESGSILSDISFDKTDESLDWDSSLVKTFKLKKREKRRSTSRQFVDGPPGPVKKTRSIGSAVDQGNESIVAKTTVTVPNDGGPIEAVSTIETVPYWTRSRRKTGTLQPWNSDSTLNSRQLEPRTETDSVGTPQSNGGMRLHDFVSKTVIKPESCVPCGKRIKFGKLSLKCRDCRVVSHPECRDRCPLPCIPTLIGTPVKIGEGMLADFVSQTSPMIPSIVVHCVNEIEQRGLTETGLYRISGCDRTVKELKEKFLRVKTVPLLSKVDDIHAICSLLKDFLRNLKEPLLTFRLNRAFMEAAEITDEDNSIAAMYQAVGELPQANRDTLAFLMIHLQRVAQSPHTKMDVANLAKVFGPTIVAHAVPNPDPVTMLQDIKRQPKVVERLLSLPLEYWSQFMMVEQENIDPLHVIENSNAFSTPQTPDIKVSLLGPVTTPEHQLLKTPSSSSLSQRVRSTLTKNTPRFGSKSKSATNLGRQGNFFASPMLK

CAAX prenyl protease 2 = biological target: T5, CAAX prenyl protease 2 (Saccharomyces cerevisiae S288c, UniProt Q03530); type: biochemical
T5 sequence (Q03530 whole entry): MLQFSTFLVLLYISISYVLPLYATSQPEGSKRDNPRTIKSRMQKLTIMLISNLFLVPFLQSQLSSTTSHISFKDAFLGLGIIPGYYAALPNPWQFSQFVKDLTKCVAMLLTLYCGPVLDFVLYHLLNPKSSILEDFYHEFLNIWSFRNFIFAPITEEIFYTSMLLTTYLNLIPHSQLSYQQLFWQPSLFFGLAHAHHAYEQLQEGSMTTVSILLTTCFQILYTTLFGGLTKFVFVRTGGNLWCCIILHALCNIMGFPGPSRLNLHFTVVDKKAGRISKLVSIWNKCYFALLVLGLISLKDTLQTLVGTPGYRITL

[17] = NIH3T3 cell viability loss – ATP luminescence, mouse fibroblasts, counter-screen, dose response (AID 2010); type: functional, cell-based;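 also: cells exposed to compound for about 90 hours before reading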
[18] = viability loss in HeLa cells – cytotoxicity control for MgcRacGAP inhibitor project, dose response (AID 624300); type: functional

Sequence of Nucleotide-binding oligomerization domain-containing protein 2 (Q9HC29 whole entry, the tested form may be a part): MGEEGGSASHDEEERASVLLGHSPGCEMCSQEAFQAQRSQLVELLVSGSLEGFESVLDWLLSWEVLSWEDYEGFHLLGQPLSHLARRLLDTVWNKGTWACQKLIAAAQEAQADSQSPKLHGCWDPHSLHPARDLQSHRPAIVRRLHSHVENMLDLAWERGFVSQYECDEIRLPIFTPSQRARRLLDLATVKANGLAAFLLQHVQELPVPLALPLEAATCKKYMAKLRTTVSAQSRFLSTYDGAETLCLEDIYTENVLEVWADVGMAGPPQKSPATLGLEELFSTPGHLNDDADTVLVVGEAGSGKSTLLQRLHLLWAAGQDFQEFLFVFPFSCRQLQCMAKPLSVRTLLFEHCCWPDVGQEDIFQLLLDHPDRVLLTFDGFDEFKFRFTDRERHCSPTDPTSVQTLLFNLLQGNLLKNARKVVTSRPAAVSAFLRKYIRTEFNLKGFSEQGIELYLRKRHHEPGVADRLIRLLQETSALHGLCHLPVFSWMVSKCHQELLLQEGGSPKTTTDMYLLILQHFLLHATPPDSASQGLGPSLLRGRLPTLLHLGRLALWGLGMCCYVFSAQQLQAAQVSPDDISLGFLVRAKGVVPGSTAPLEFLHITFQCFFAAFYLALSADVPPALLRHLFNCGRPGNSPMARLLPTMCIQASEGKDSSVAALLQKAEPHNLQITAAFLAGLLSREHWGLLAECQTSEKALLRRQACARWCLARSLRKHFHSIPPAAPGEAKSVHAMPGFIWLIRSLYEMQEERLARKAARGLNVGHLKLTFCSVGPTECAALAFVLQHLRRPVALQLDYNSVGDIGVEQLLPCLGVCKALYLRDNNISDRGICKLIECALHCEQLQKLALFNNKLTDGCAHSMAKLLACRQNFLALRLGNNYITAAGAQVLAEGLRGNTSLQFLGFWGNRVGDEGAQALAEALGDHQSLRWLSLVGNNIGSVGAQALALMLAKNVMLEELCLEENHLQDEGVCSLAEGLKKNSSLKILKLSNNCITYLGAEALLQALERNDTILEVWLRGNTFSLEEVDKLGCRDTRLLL
Sequence of DNA dC->dU-editing enzyme APOBEC-3G (Q9HC16 whole entry): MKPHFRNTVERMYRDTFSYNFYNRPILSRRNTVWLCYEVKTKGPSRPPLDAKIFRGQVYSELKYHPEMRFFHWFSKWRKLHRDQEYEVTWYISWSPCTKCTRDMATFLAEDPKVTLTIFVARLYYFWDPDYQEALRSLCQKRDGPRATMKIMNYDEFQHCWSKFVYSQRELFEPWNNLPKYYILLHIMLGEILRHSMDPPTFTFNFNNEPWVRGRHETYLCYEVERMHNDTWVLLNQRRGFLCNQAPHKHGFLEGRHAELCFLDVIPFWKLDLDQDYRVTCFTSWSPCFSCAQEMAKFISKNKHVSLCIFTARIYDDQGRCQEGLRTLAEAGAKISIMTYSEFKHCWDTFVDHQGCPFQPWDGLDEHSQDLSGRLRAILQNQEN
Sequence of Trypsin (P00761 whole entry): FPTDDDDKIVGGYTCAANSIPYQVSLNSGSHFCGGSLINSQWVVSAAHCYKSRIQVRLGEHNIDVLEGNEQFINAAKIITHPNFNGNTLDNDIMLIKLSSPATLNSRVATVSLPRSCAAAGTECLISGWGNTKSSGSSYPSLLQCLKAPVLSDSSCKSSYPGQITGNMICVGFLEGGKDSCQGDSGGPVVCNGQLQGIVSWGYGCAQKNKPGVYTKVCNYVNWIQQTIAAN
Sequence of Tumor necrosis factor (P01375 whole entry): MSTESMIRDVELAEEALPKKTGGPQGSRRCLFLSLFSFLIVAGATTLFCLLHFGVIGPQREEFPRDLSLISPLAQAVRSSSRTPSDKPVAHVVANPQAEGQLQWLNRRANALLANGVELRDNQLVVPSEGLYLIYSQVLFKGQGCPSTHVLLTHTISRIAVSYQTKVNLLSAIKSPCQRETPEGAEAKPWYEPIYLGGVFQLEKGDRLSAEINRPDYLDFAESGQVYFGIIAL

Compound: COCCCn1c(N)c(C(=O)NCc2ccco2)c2nc3ccccc3nc21
- AC50 (Trypsin): 10.3 µM (active)

- IC50 (Coagulation factor XII): > 50 µM (inactive)
Compound: C=CCn1c(SCC(=O)Nc2cccnc2Cl)nnc1-c1ccc(Cl)cc1

Compound: COc1ccc(-c2c[nH]nc2-c2ccc(OCc3ccccc3F)cc2O)cc1OC
- IC50 (HEK293 [1]): 6.09 µM (active)
- EC50 (HEK293 [2]): 9.16 µM (active)
- EC50 [3]: > 20 µM (inactive)
- IC50 (HEK293 [4]): 11.7 µM (active)
- IC50 (HEK293 [5]): > 20 µM (inactive)
- IC50 (HEK293 [6]): 7.5 µM (active)

Compound: COc1cc(/C=C2\CC(C(C)(C)C)C/C(=C\c3cc(OC)c(OC)c(OC)c3)C2=O)cc(OC)c1OC (stereo not given)
- IC50 (HEK293 [1]): 4.76 µM (active)
- EC50 (BJ [7]): 5.18 µM (inconclusive)
- EC50 (BJ [8]): 4.94 µM (active)
- AC50 (INS1): 5.52 µM (active)
- EC50 (HEK293 [2]): 5.25 µM (active)
- EC50 [3]: 8.66 µM (active)
- IC50 (HEK293 [4]): 18.3 µM (active)
- EC50 (BJ [9]): 12 µM (inconclusive)
- IC50 (HEK293 [5]): > 20 µM (inactive)
- EC50 [10]: 4.23 µM (active)
- IC50 (HEK293 [6]): 4.98 µM (active)

Compound: O=C(O)c1ccc(-n2c(-c3ccc(Br)cc3)n[nH]c2=S)cc1
- IC50 [11]: 9.1 µM (active)

- IC50 (Coagulation factor XII): > 50 µM (inactive)
Compound: CC(=O)Nc1ccc(S(=O)(=O)NCCNc2ccccc2[N+](=O)[O-])cc1

Compound: Cc1ncc(CN2CCCC(C(=O)c3ccc(C(C)(C)C)cc3)C2)s1 (stereo not given)
- IC50 (Coagulation factor XII): > 50 µM (inactive)

- IC50 (Aminopeptidase N): 22.4 µM (active)
Compound: COc1ccc(S(=O)(=O)NC2=NC(=O)/C(=C\c3cc(OC)c(OC)cc3[N+](=O)[O-])S2)cc1

Compound: O=C(COc1ccc2c(-c3ccccc3)cc(=O)oc2c1)Nc1cccnc1
- IC50 (HEK293 [1]): 2.21 µM (active)
- EC50 (HEK293 [2]): 0.75 µM (active)
- IC50 [12]: > 80 µM (inactive)
- IC50 (Tumor necrosis factor): 4.59 µM (active)
- EC50 [3]: > 20 µM (inactive)
- IC50 (HEK293 [13]): > 20 µM (inactive)
- IC50 [14]: 3.17 µM (active)
- IC50 (HEK293 [4]): 18.7 µM (active)
- IC50 (HEK293 [5]): > 20 µM (inactive)
- IC50 (HEK293 [6]): 10.8 µM (inactive)

Compound: COc1ccc(C2CC(c3ccc4ccccc4c3)=NN2C(=O)CNC2CCCCC2)cc1 (stereo not given)
- EC50 [15]: 2.76 µM (active)
- IC50 [16]: 110 µM (active)
- AC50 (CAAX prenyl protease 2): 9.16 µM (active)
- EC50 [17]: > 30 µM (not active)
- CC50 [18]: 39 µM (active)
- AC50 (Trypsin): > 100 µM (inactive)

Compound: O=C(Nc1cc(S(=O)(=O)N2CCOCC2)ccc1N1CCCCC1)c1ccc(Cl)cc1
- IC50 [11]: 50.5 µM (active)
